Measurements as given in ChEMBL document CHEMBL1201862, “PubChem BioAssay data set” (2004).
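These data come from cells grown in 96-well plates and exposed to compound for 48 hours at five concentrations. At the GI50, growth is halved.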 The source made the active and inactive calls. Rule as the data show it: active = GI50 up to about 1.1 µM and inactive = higher.

Legend:
Assay in all cases: inhibition of tumour cell growth, NCI panel, 48 h
ACHN = system: ACHN
DU-145 = system: DU-145
EKVX = system: EKVX
HOP-62 = system: HOP-62
IGROV-1 = system: IGROV-1
K562 = system: K562
MDA-MB-231 = system: MDA-MB-231
MDA-N = system: MDA-N
NCI-H23 = system: NCI-H23
NCI-H522 = system: NCI-H522
OVCAR-3 = system: OVCAR-3
OVCAR-5 = system: OVCAR-5
RXF 393 = system: RXF 393
SF-268 = system: SF-268
SN12C = system: SN12C
T47D = system: T47D
U-251 = system: U-251
UACC-62 = system: UACC-62
HOP-92 = system: HOP-92

Measured: GI50

C/C(=N/Nc1nc(C)cc(O)n1)C(=O)O
inactive: ACHN > 100 µM | DU-145 > 100 µM | EKVX > 100 µM | HOP-62 > 100 µM | IGROV-1 > 100 µM | K562 > 100 µM | MDA-MB-231 > 100 µM | MDA-N > 100 µM | NCI-H23 > 100 µM | NCI-H522 > 100 µM | OVCAR-3 > 100 µM | OVCAR-5 > 100 µM | RXF 393 > 100 µM | SF-268 > 100 µM | SN12C 19 µM | T47D > 100 µM | U-251 > 100 µM | UACC-62 > 100 µM

CCCCc1ccc(Nc2nc(Cl)c3[nH]cnc3n2)cc1
inactive: ACHN 20.8 µM | DU-145 17.9 µM | EKVX 33.8 µM | HOP-62 14 µM | HOP-92 11.6 µM | IGROV-1 25.6 µM | K562 32.7 µM | MDA-MB-231 16.6 µM | MDA-N 21.9 µM | NCI-H23 17.7 µM | NCI-H522 24.2 µM | OVCAR-3 14.8 µM | OVCAR-5 40.6 µM | RXF 393 17.1 µM | SF-268 22 µM | SN12C 22.4 µM | T47D 11.2 µM | UACC-62 16.4 µM

O=C(O)c1ccccc1C(=O)OCC1CCCN2CCCCC12 (stereo unspecified)
inactive: ACHN > 100 µM | DU-145 > 100 µM | EKVX > 100 µM | HOP-62 > 100 µM | HOP-92 > 100 µM | IGROV-1 > 100 µM | K562 > 100 µM | MDA-MB-231 > 100 µM | MDA-N > 100 µM | NCI-H23 > 100 µM | OVCAR-3 > 100 µM | OVCAR-5 > 100 µM | RXF 393 > 100 µM | SF-268 > 100 µM | SN12C > 100 µM | T47D > 100 µM | U-251 > 100 µM | UACC-62 > 100 µM

C/C=C/OC1C(C2COC(C)(C)O2)OC2OC(C)(C)OC21 (stereo unspecified)
inactive: ACHN > 100 µM | DU-145 > 100 µM | EKVX > 100 µM | HOP-62 > 100 µM | HOP-92 > 100 µM | IGROV-1 > 100 µM | K562 > 100 µM | MDA-MB-231 > 100 µM | MDA-N > 100 µM | NCI-H23 > 100 µM | NCI-H522 > 100 µM | OVCAR-3 > 100 µM | OVCAR-5 > 100 µM | RXF 393 > 100 µM | SF-268 > 100 µM | T47D > 100 µM | U-251 > 100 µM

FC1=C2CCCCCC2SC1(F)F (stereo unspecified)
inactive: ACHN 29.8 µM | DU-145 > 100 µM | EKVX > 100 µM | HOP-92 7.18 µM | IGROV-1 > 100 µM | K562 20.8 µM | MDA-MB-231 78.9 µM | MDA-N 42.2 µM | NCI-H23 > 100 µM | NCI-H522 15.6 µM | OVCAR-3 > 100 µM | OVCAR-5 > 100 µM | RXF 393 13.3 µM | SF-268 > 100 µM | T47D > 100 µM | UACC-62 > 100 µM

CCCCCCSC[C@H](OC(C)=O)[C@@H](OC(C)=O)[C@@H](OC(C)=O)[C@@H](COC(C)=O)OC(C)=O
inactive: ACHN > 100 µM | DU-145 > 100 µM | EKVX > 100 µM | HOP-62 > 100 µM | HOP-92 > 100 µM | IGROV-1 83.8 µM | K562 43.9 µM | MDA-MB-231 > 100 µM | MDA-N > 100 µM | NCI-H23 > 100 µM | OVCAR-3 80.9 µM | OVCAR-5 > 100 µM | RXF 393 > 100 µM | SF-268 > 100 µM | SN12C > 100 µM | T47D 38.6 µM | U-251 > 100 µM | UACC-62 > 100 µM

CCOC(=O)Cn1c(=O)c2nc(SC)sc2n(CC)c1=S
inactive: ACHN > 100 µM | DU-145 > 100 µM | HOP-62 > 100 µM | HOP-92 82.6 µM | IGROV-1 94 µM | K562 > 100 µM | MDA-MB-231 > 100 µM | MDA-N > 100 µM | NCI-H23 > 100 µM | NCI-H522 > 100 µM | OVCAR-3 > 100 µM | OVCAR-5 > 100 µM | RXF 393 36.8 µM | SF-268 > 100 µM | SN12C > 100 µM | T47D 61 µM | U-251 > 100 µM

O=C1/C(=N/c2ccc(Nc3ccccc3)cc2)Oc2ccccc21
inactive: ACHN 3.18 µM | DU-145 8.47 µM | EKVX 5.31 µM | HOP-62 5.57 µM | IGROV-1 3.06 µM | K562 2.93 µM | MDA-MB-231 2.27 µM | MDA-N 2.74 µM | NCI-H23 2.04 µM | NCI-H522 1.83 µM | OVCAR-3 1.97 µM | OVCAR-5 2.54 µM | RXF 393 2.51 µM | SF-268 2.88 µM | SN12C 2.02 µM | T47D 3 µM | U-251 1.69 µM | UACC-62 3.28 µM

O=C1Nc2ccccc2/C1=N/Nc1ccc([N+](=O)[O-])cc1
inactive: ACHN 13.5 µM | DU-145 12.9 µM | EKVX 8.93 µM | HOP-62 14.6 µM | IGROV-1 14.6 µM | K562 17 µM | MDA-MB-231 24.8 µM | MDA-N 68.5 µM | NCI-H23 21.5 µM | NCI-H522 11.1 µM | OVCAR-3 13.6 µM | OVCAR-5 20.4 µM | RXF 393 15 µM | SF-268 10.4 µM | SN12C 22.6 µM | T47D 7.62 µM | U-251 30.3 µM | UACC-62 28.8 µM

CC1CC(C)C(O)C(C2CC(CC(=O)NC3CCCCC3)CC(=O)O2)C1 (stereo unspecified)
inactive: ACHN > 100 µM | DU-145 > 100 µM | EKVX > 100 µM | HOP-62 > 100 µM | HOP-92 > 100 µM | IGROV-1 > 100 µM | K562 > 100 µM | MDA-MB-231 > 100 µM | MDA-N > 100 µM | NCI-H23 > 100 µM | NCI-H522 > 100 µM | OVCAR-3 > 100 µM | OVCAR-5 > 100 µM | RXF 393 > 100 µM | SF-268 > 100 µM | SN12C 87.9 µM | T47D > 100 µM | U-251 > 100 µM

COc1cc(C2c3cc4c(cc3OC(Nc3ccccc3)C2C)OCO4)cc(OC)c1O (stereo unspecified)
inactive: DU-145 4.02 µM | HOP-92 16.7 µM | IGROV-1 4.55 µM | K562 1.97 µM | MDA-MB-231 4.33 µM | MDA-N 1.18 µM | NCI-H23 7.03 µM | NCI-H522 2.35 µM | OVCAR-3 4.47 µM | OVCAR-5 7.96 µM | RXF 393 4.45 µM | SF-268 7.48 µM | SN12C 4.66 µM | T47D 15.8 µM | U-251 3.95 µM | UACC-62 3.66 µM

O=C(O)CNC(=O)c1ccc2cc(C(=O)N3CC(CCl)c4ccc([N+](=O)[O-])cc43)[nH]c2c1 (stereo unspecified)
inactive: ACHN > 100 µM | DU-145 > 100 µM | EKVX > 100 µM | HOP-92 > 100 µM | IGROV-1 > 100 µM | MDA-MB-231 > 100 µM | MDA-N > 100 µM | NCI-H23 > 100 µM | NCI-H522 > 100 µM | OVCAR-3 > 100 µM | OVCAR-5 > 100 µM | RXF 393 > 100 µM | SF-268 > 100 µM | SN12C > 100 µM | T47D > 100 µM | U-251 > 100 µM | UACC-62 > 100 µM

CCCC[S+]([O-])CCC(N)C(=O)O (stereo unspecified)
inactive: ACHN > 100 µM | DU-145 > 100 µM | EKVX > 100 µM | HOP-62 > 100 µM | IGROV-1 > 100 µM | K562 > 100 µM | MDA-MB-231 > 100 µM | MDA-N > 100 µM | NCI-H23 > 100 µM | NCI-H522 > 100 µM | OVCAR-3 > 100 µM | OVCAR-5 > 100 µM | RXF 393 > 100 µM | SF-268 > 100 µM | SN12C > 100 µM | T47D > 100 µM | U-251 > 100 µM | UACC-62 > 100 µM

C/C=C(\C)C(=O)O[C@@H]1CC(C)(C)CC2C3=CCC4[C@]56CC[C@](O)(OC5)C(C)(C)C6CC[C@@]4(C)C3(C)CC[C@]21C(=O)O (stereo partly specified)
inactive: ACHN 59.4 µM | DU-145 > 100 µM | EKVX > 100 µM | HOP-62 > 100 µM | IGROV-1 54.3 µM | K562 > 100 µM | MDA-MB-231 > 100 µM | MDA-N > 100 µM | NCI-H23 > 100 µM | NCI-H522 > 100 µM | OVCAR-3 81.7 µM | OVCAR-5 > 100 µM | RXF 393 > 100 µM | SF-268 > 100 µM | SN12C > 100 µM | T47D > 100 µM | U-251 70.5 µM | UACC-62 > 100 µM

CC(=O)OC12c3ccccc3-c3ccccc3C1C1C(=O)OC(=O)C12 (stereo unspecified)
inactive: ACHN > 10 µM | DU-145 > 10 µM | EKVX > 10 µM | HOP-62 > 10 µM | HOP-92 > 10 µM | IGROV-1 > 10 µM | K562 > 10 µM | MDA-MB-231 > 10 µM | MDA-N > 10 µM | NCI-H23 > 10 µM | NCI-H522 > 10 µM | OVCAR-3 > 10 µM | OVCAR-5 > 10 µM | RXF 393 > 10 µM | SF-268 > 10 µM | SN12C > 10 µM | T47D > 10 µM | U-251 > 10 µM

COc1cc(C)c2c(c1C=O)Oc1c(c(C)c(O)c3c1C(O)OC3=O)OC2=O (stereo unspecified) [STICTIC ACID]
inactive: ACHN 22 µM | DU-145 87.5 µM | EKVX 32.6 µM | HOP-62 70.1 µM | HOP-92 99.3 µM | IGROV-1 23.1 µM | MDA-MB-231 23.3 µM | MDA-N 17.5 µM | NCI-H23 26.5 µM | NCI-H522 24.9 µM | OVCAR-3 32.5 µM | OVCAR-5 > 100 µM | RXF 393 32.5 µM | SF-268 21.4 µM | SN12C > 100 µM | T47D 17.6 µM | U-251 33.5 µM | UACC-62 25.6 µM
